Measured values from US20110098296A1, “Thiazole And Oxazole Kinase Inhibitors” (priority 2007, published 2011).

What was measured:
Type in all cases: cell-based
Colo205 tumor cells = assay: Method A: Methylene Blue Growth Inhibition Assay, Colo205; conditions: Homo sapiens, COLO 205, 72 h, 3 days
Description: (§1) Human breast (BT474) and head and neck (HN5) tumor cells were cultured in low glucose DMEM (Life Technologies 12320-032) containing 10% fetal bovine serum (FBS). Human colon tumor cells (Colo205) were cultured in DMEM (Invitrogen, 10564) containing 10% FBS. The SV40 transformed human mammary epithelial cell line HB4a was transfected with either human H-ras cDNA (HB4a r4.2) or the human c-ErbB2 cDNA (HB4a c5.2). The HB4a clones were cultured in RPMI containing 10% FBS, insulin (5 g/mL), hydrocortisone (5 g/mL), supplemented with the selection agent hygromycin B (50 g/mL). All lines were grown in a humidified incubator at 37° C. in 95% air, 5% CO2. Cells were harvested using trypsin/EDTA, counted using a haemocytometer, and plated in 100 μL of the appropriate media, at the following densities, in a 96-well tissue culture plate (Falcon 3075): BT474 10,000 cells/well, HN5 3,000 cells/well. The next day, compounds were diluted in DMEM containing […] gentamicin, at twice the final required concentration, from 10 mM stock solutions in DMSO. 100 μl/well of these dilutions were added to the 100 μL of media currently on the cell plates. Medium containing 0.6% DMSO was added to control wells. Compounds diluted in DMEM were added to all cell lines. The final concentration of DMSO in all wells was 0.3%. Cells were returned to the incubator (37° C., […]) for 3 days. Medium was then removed by aspiration. Cell biomass was estimated by staining cells with 90 μL/well methylene blue (Sigma M9140, 0.5% in 1:1 EtOH:H2O), and incubation at room temperature for at least 30 minutes. Stain was removed, and the plates rinsed by immersion in deionized H2O and air-dried. To release stain from the cells 100 μL of solubilization solution were added (1% N-lauroyl sarcosine, sodium salt, Sigma L5125, in PBS), and plates were shaken gently for about 30 minutes. Optical density at 620 nm was measured on a microplate reader. Percent inhibition of cell growth was calculated relative to vehicle-treated control wells. Concentration of compound that inhibits 50% of control cell growth (IC50) was interpolated using nonlinear regression (Levenberg-Marquardt) and the equation,
(§2) y=Vmax*(1−(x/(K+x)))+Y2, where “K” was equal to the IC50.

BT474 tumor cells = assay: Method B: CellTiter-Glo Growth Inhibition Assay, BT474; conditions: Homo sapiens, BT-474, 72 h, 3 days
Description: Human breast tumor cells (BT474) were cultured in RPMI, (Invitrogen, 22400) containing 10% fetal bovine serum (FBS). Human head and neck tumor cells (HN5) were cultured in low glucose DMEM (Invitrogen, 12320) containing 10% FBS. Human colon tumor cells (Colo205) were cultured in DMEM (Invitrogen, 10564) containing 10% FBS. Human melanoma cancer cells (SK-MEL-28) were incubated in DMEM (Invitrogen). All cell lines were maintained at 37° C. in a humidified 5% CO2, 95% air incubator. Cells were harvested using trypsin/EDTA, counted using a haemocytometer, and plated in 30 μL of the appropriate media described above, at the following densities, in a half-area, black-walled, 96-well tissue culture plate (Corning 3882): BT474 3,000 cells/well, HN5 500 cells/well, Colo205 3,000 cells/well, and SK-MEL-28 500 cells/well). The next day, compounds were diluted in DMEM containing […] gentamicin, from 10 mM stock solutions in DMSO. 30 μL/well of these dilutions were added to the 30 μL/well of media currently on the cell plates. Medium containing 0.6% DMSO was added to control wells. The final concentration of DMSO in all wells was 0.3%. Cells were incubated at 37° C., 5% CO2 for 3 days. Cell biomass was estimated using CellTiter-Glo® reagent (Promega G7571). Briefly, plates were removed from the incubator and allowed to equilibrate to rt for 30 minutes. 25-60 μL of CellTiter-Glo® reagent were added to each well of the treated cells and plates were shaken on an orbital plate shaker for 2 mins. Plates were incubated without shaking for 30 more mins and read in a luminometer with an integration time of 0.5 seconds per well. Percent inhibition of cell growth was calculated relative to vehicle-treated control wells. Concentration of compound that inhibits 50% of vehicle control cell growth (IC50) was interpolated using nonlinear regression (Levenberg-Marquardt) and the equation, y=V max*(1−(x/(K+x)))+Y2, where “K” was equal to the IC50.

HN5 tumor cells = assay: Method A: Methylene Blue Growth Inhibition Assay, HN5; conditions: Homo sapiens, 72 h, 3 days
Description: as §1, §2

COc1cc(Nc2nccc(-c3sc(N)nc3-c3cccc(NC(=O)c4c(F)cccc4F)c3)n2)cc(OC)c1OC [Example 16, N-[3-(2-Amino-5-{2-[(3,4,5-trimethoxyphenyl)amino]pyrimidiN-4-yl}-1,3-thiazol-4-yl)phenyl]-2,6-difluorobenzamide]
IC50 (Colo205 tumor cells): < 0.1 µM

Cc1nc(-c2cccc(NC(=O)c3cc(F)ccc3F)c2)c(-c2ccnc(Nc3ccc(OCCN(C)C)c(Cl)c3)n2)o1 [Example 142]
IC50 (BT474 tumor cells): > 1 µM

COc1ccc(Nc2nccc(-c3sc(N)nc3-c3cccc(NC(=O)c4c(F)cccc4F)c3)n2)cc1N1CCNCC1 [Example 18, N-[3-(2-Amino-5-{2-[(4-methoxy-3-piperaziN-1-ylphenyl)amino]pyrimidiN-4-yl}-1,3-thiazol-4-yl)phenyl]-2,6-difluorobenzamide]
IC50 (HN5 tumor cells): < 0.1 µM
